Experimental data as given in US9458172B2, “Pyridinyl and pyrimidinyl sulfoxide and sulfone derivatives” (priority 2012, dated 2016).
Like-named read-outs stand apart in the source and are kept apart here.

Experiments:
[1] = target: NAMPT (Homo sapiens (Human), UniProt P43490); test: Biochemical Inhibition Assay (NAMPT enzymatic reaction, NMN quantified by mass spectrometry); conditions: 33 nM recombinant His-tagged NAMPT, 1 μM NAM, 30 min at rt
Method: Assay 1: Biochemical Inhibition Assay
NAMPT protein purification. Recombinant His-tagged NAMPT was produced in E. coli cells, purified over a Ni column, and further purified over a size-exclusion column by XTAL Biostructures.
The NAMPT Enzymatic Reaction. The NAMPT enzymatic reactions were carried out in Buffer A (50 mM Hepes pH 7.5, 50 mM NaCl, 5 mM MgCl2, and 1 mM THP) in 96-well V-bottom plates. The compound titrations were performed in a separate dilution plate by serially diluting the compounds in DMSO to make a 100× stock. […] The compound and enzyme mixture was incubated for 15 min at rt, then 10 μL of 10× substrate and co-factors in Buffer A were added to the test well to make a final concentration of 1 μM NAM, […] 5-Phospho-D-ribose 1-diphosphate (PRPP), and 2.5 mM Adenosine 5′-triphosphate (ATP). The reaction was allowed to proceed for 30 min at rt, then was quenched with the addition of 11 μL of a solution of formic acid and L-Cystathionine to make a final concentration of 1% formic acid and 10 μM L-Cystathionine. Background and signal strength was determined by addition (or non-addition) of a serial dilution of NMN to a pre-quenched enzyme and cofactor mix.
Quantification of NMN. A mass spectrometry-based assay was used to measure the NAMPT reaction product, β-nicotinamide mononucleotide (NMN), and the internal control (L-Cystathionine). NMN and L-Cystathionine were detected using the services of Biocius Lifesciences with the RapidFire system. In short, the NMN and L-Cystathionine were bound to a graphitic carbon cartridge in 0.1% formic acid, eluted in 30% acetonitrile buffer, and injected into a Sciex 4000 mass spectrometer. The components of the sample were ionized with electrospray ionization and the positive ions were detected. […] The fragments are quantified and the analyzed by the following method.
Determination of IC50 Values. First, the NMN signal was normalized to the L-Cystathionine signal by dividing the NMN signal by the L-Cystathionine signal for each well. The signal from the background wells were averaged and subtracted from the test plates.

[2] = test system: A2780 cells; test: In-Vitro Cell Proliferation Assay (SRB)
[3] = Homo sapiens, A2780, 72 h, read-out: Cell Proliferation (IC50)
[4] = read-out: Cell Proliferation (IC50), A2780 cells, 72 h, sulforhodamine B
[5] = Homo sapiens, A2780, 72 h, read-out: Cell Proliferation (IC50), A2780 cells, 72 h, sulforhodamine B

NAMPT, sequence (P43490 whole entry): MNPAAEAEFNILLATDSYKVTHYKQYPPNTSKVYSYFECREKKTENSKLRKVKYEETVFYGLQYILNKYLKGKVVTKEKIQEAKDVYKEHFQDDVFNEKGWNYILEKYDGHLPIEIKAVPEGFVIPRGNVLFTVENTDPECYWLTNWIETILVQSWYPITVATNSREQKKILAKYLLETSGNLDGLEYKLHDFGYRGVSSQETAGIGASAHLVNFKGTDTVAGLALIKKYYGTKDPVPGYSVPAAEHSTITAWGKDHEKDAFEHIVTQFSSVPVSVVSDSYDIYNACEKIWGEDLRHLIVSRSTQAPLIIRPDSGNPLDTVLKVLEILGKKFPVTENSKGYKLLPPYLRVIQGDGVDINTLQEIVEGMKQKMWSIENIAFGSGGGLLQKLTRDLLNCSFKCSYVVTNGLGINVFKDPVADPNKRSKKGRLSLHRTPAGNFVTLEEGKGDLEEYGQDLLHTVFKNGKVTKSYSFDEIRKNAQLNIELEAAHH

IC50 [1] [nM]	IC50 [2, 5] [nM]	SMILES	further results
55.3	–	O=C(NCc1ccc([S+]([O-])c2cc(F)cc(F)c2)cn1)c1cc2cnccc2[nH]1 (racemic) [Example 9, 1H-Pyrrolo[3,2-c]pyridine-2-carboxylic acid [5-(3,5-difluoro-benzenesulfinyl)-pyridin-2-ylmethyl]-amide (racemic)]	IC50 [2, 3]: 209 nM
36.5	–	O=C(NCc1ccc([S+]([O-])c2cc(F)cc(F)c2)cn1)c1ccc2nccn2c1 (racemic) [Example 14, Imidazo[1,2-a]pyridine-6-carboxylic acid [5-(3,5-difluoro-benzenesulfinyl)-pyridin-2-ylmethyl)-amide (racemic)]	IC50 [2, 4]: 51.3 nM
357	–	O=C(NCc1ccc([S+]([O-])c2cc(F)cc(F)c2)cn1)c1cnc2[nH]ncc2c1 (racemic) [Example 15, 1H-Pyrazolo[3,4-b]pyridine-5-carboxylic acid [5-(3,5-difluoro-benzenesulfinyl)-pyridin-2-ylmethyl]-amide (racemic)]	IC50 [2, 3]: 309 nM
16.2	–	O=C(NCc1ccc([S+]([O-])c2cc(F)cc(F)c2)cn1)c1cnc2nccn2c1 (racemic) [Example 24, Imidazo[1,2-a]pyrimidine-6-carboxylic acid [5-(3,5-difluoro-benzenesulfinyl)-pyridin-2-ylmethyl]-amide (racemic)]	IC50 [2, 3]: 275 nM
15.9	–	O=C(NCc1ccc([S+]([O-])c2cc(F)cc(F)c2)cn1)c1ccc2nccn2c1 (racemic) [Example 55, Imidazo[1,2-a]pyridine-6-carboxylic acid [5-(3,5-difluoro-benzenesulfinyl)-pyridin-2-ylmethyl]-amide (racemic)]	IC50 [2, 4]: 41.9 nM
407	–	O=C(NCc1ccc([S+]([O-])c2cc(F)cc(F)c2)cn1)c1ccc2nccn2c1 (racemic) [Example 58, Imidazo[1,2-a]pyridine-6-carboxylic acid [5-(3,5-difluoro-benzenesulfinyl)-pyridin-2-ylmethyl]-amide (racemic)]	IC50 [2, 4]: 959 nM
17.7	–	O=C(NCc1ccc([S+]([O-])c2cccc(C(F)(F)F)c2)cn1)c1cc2ccncc2o1 (racemic) [Example 87, Furo[2,3-c]pyridine-2-carboxylic acid [5-(3-trifluoromethyl-benzenesulfinyl)-pyridin-2-ylmethyl]-amide (racemic)]	IC50 [2, 3]: 15.2 nM
8	–	O=C(NCc1ccc([S+]([O-])c2cccc(OC(F)(F)F)c2)cn1)N1Cc2ccncc2C1 (racemic) [Example 89, 1,3-Dihydro-pyrrolo[3,4-c]pyridine-2-carboxylic acid [5-(3-trifluoromethoxy-benzenesulfinyl)-pyridin-2-ylmethyl]-amide (racemic)]	IC50 [2, 3]: 18.6 nM
–	5.2	O=C(NCc1ccc(S(=O)(=O)c2cc(F)cc(F)c2)cn1)c1cc2ccncc2o1 [Example 5, Furo[2,3-c]pyridine-2-carboxylic acid [5-(3,5-difluoro-benzenesulfonyl)-pyridin-2-ylmethyl]-amide]	–
–	–	O=C(NCc1ncc(S(=O)(=O)c2ccccc2)cn1)c1cc2ccncc2o1 [Example 11, Furo[2,3-c]pyridine-2-carboxylic acid (5-benzenesulfonyl-pyrimidin-2-ylmethyl)-amide]	IC50 [2, 3]: 314 nM
–	28.3	O=C(NCc1ccc(S(=O)(=O)c2cccc(OC(F)(F)F)c2)cn1)c1cnc2[nH]ncc2c1 [Example 19, 1H-Pyrazolo[3,4-b]pyridine-5-carboxylic acid [5-(3-trifluoromethoxy-benzenesulfonyl)-pyridin-2-ylmethyl]-amide]	–
–	10.2	O=C(NCc1ccc(S(=O)(=O)c2cccc(OC(F)(F)F)c2)cn1)c1cc2cnccc2[nH]1 [Example 21, 1H-Pyrrolo[3,2-c]pyridine-2-carboxylic acid [5-(3-trifluoromethoxy-benzenesulfonyl)-pyridin-2-ylmethyl]-amide]	–
–	5.4	O=C(NCc1ccc(S(=O)(=O)c2cccc(C(F)(F)F)c2)cn1)c1cc2ccncc2o1 [Example 22, Furo[2,3-c]pyridine-2-carboxylic acid [5-(3-trifluoromethyl-benzenesulfonyl)-pyridin-2-ylmethyl]-amide]	–
–	–	CCCn1cc(S(=O)(=O)c2ccc(CNC(=O)c3cc4ccncc4o3)nc2)cn1 [Example 61, Furo[2,3-c]pyridine-2-carboxylic acid [5-(1-propyl-1H-pyrazole-4-sulfonyl)-pyridin-2-ylmethyl]-amide]	IC50 [2, 3]: 5.3 nM
–	11.6	CC(C)n1cc(S(=O)(=O)c2ccc(CNC(=O)c3cc4ccncc4o3)nc2)cn1 [Example 62, Furo[2,3-c]pyridine-2-carboxylic acid [5-(1-isopropyl-1H-pyrazole-4-sulfonyl)-pyridin-2-ylmethyl]-amide]	–
–	2	O=C(NCc1ccc(S(=O)(=O)c2cc(F)cc(N3CCOCC3)c2)cn1)c1cc2ccncc2o1 [Example 88, Furo[2,3-c]pyridine-2-carboxylic acid [5-(3-fluoro-5-morpholin-4-yl-benzenesulfonyl)-pyridin-2-ylmethyl]-amide]	–
–	4.23	O=C(NCc1ccc(S(=O)(=O)c2ccc(N3CCOCC3)cc2)cn1)N1Cc2ccncc2C1 [Example 97, 1,3-Dihydro-pyrrolo[3,4-c]pyridine-2-carboxylic acid [5-(4-morpholin-4-yl-benzenesulfonyl)-pyridin-2-ylmethyl]-amide]	–
–	38.9	O=C(NCc1ccc(S(=O)(=O)C2CCN(C3COC3)CC2)cn1)c1cc2ccncc2o1 [Example 103, Furo[2,3-c]pyridine-2-carboxylic acid [5-(1-oxetan-3-yl-piperidine-4-sulfonyl)-pyridin-2-ylmethyl]-amide]	–
–	28.6	O=C(NCc1ccc(S(=O)(=O)C2CCN(C3CCOCC3)CC2)cn1)c1cc2ccncc2o1 [Example 105, Furo[2,3-c]pyridine-2-carboxylic acid {5-[1-(tetrahydro-pyran-4-yl)-piperidine-4-sulfonyl]-pyridin-2-ylmethyl)-amide]	–
–	–	CN1CCN(c2ccc(S(=O)(=O)c3ccc(CNC(=O)c4cc5ccncc5o4)nc3)cn2)CC1 [Example 113, N-[[5-[[6-(4-methylpiperazin-1-yl)-1-pyridyl]sulfonyl]-2-pyridyl]methyl]furo[2,3-c]pyridine-2-carboxamide]	IC50 [2, 4]: 0.488 nM
–	37.2	CCCn1cc(S(=O)(=O)c2ccc(CNC(=O)N3Cc4ccncc4C3)nc2)cn1 [Example 140, N-[[5-(1-propylpyrazol-4-yl)sulfonyl-2-pyridyl]methyl]-1,3-dihydropyrrolo[3,4-c]pyridine-2-carboxamide]	–
–	41.5	COc1cc(F)cc(S(=O)(=O)c2ccc(CNC(=O)c3cnc4[nH]ncc4c3)nc2)c1 [Example 144, N-[[5-(3-fluoro-5-methoxy-phenyl)sulfonyl-2-pyridyl]methyl]-1H-pyrazolo[3,4-b]pyridine-5-carboxamide]	–
–	3.03	CCN(C)c1ncc(S(=O)(=O)c2ccc(CNC(=O)c3cc4ccncc4o3)nc2)s1 [Example 146, N-[[5-[2-[ethyl(methyl)amino]thiazol-5-yl]sulfonyl-2-pyridyl]methyl]furo[2,3-c]pyridine-2-carboxamide]	–
–	58.8	CCn1cc(S(=O)(=O)c2ccc(CNC(=O)c3cc4ccncc4o3)nc2)cn1 [Example 176, N-[[5-(l-ethylpyrazol-4-yl)sulfonyl-2-pyridyl]methyl]furo[2,3-c]pyridine-2-carboxamide]	–
